Experimental data taken from the supplement of paper PMC6045584.

Experiments:
Test in all cases: area under dose-response curve of surviving fraction (unscaled, Aref=0) (surviving fraction x log10(nM)); higher = more resistant
Conditions in all cases: exposure time: 5 days; dose range 0.5-1000 nM
[1] = compound: CCn1c(C(=O)N(C2CC2)C2CC2)cc2c3c(ncn3C)c(Nc3cc(C)n(C)n3)nc21
Procedure, shortened: (§1)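 Surviving fractions were fitted by 3-parameter logistic regression in the drc R package to give dose-response survival curves. They came from tumour cell lines treated for five days with eight inhibitor concentrations from 0.5 to 1000 nM and read by CellTiter-Glo luminescence against DMSO-only wells. The area under the curve is the unscaled activity area. It was calculated over log10 dose with Aref = 0.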

SOTRASTAURIN/AEB071 = compound: CN1CCN(c2nc(C3=C(c4c[nH]c5ccccc45)C(=O)NC3=O)c3ccccc3n2)CC1 [SOTRASTAURIN/AEB071]
Procedure, shortened: as §1

SORAFENIB = compound: CNC(=O)c1cc(Oc2ccc(NC(=O)Nc3ccc(Cl)c(C(F)(F)F)c3)cc2)ccn1 [SORAFENIB]
Procedure, shortened: as §1

[2] = compound: CNCc1ccc(-c2[nH]c3cc(F)cc4c3c2CCNC4=O)cc1
Procedure, shortened: as §1

FORETINIB = compound: COc1cc2c(Oc3ccc(NC(=O)C4(C(=O)Nc5ccc(F)cc5)CC4)cc3F)ccnc2cc1OCCCN1CCOCC1 [FORETINIB]
Procedure, shortened: as §1

[3] = compound: COc1cc2ncnc(Nc3ccc(F)c(Cl)c3)c2cc1NC(=O)/C=C/CN1CCCCC1
Procedure, shortened: as §1

CRIZOTINIB = compound: C[C@@H](Oc1cc(-c2cnn(C3CCNCC3)c2)cnc1N)c1c(Cl)ccc(F)c1Cl [CRIZOTINIB]
Procedure, shortened: as §1

[4] = compound: C[C@@H](Oc1cc(-c2cnn(C3CCNCC3)c2)cnc1N)c1c(Cl)ccc(F)c1Cl
Procedure, shortened: as §1

ABIRATERONE = compound: C[C@]12CC[C@H](O)CC1=CC[C@@H]1[C@@H]2CC[C@]2(C)C(c3cccnc3)=CC[C@@H]12 [ABIRATERONE]
Procedure, shortened: as §1

DASATINIB = compound: Cc1nc(Nc2ncc(C(=O)Nc3c(C)cccc3Cl)s2)cc(N2CCN(CCO)CC2)n1 [DASATINIB]
Procedure, shortened: as §1

TEMOZOLOMIDE = compound: Cn1nnc2c(C(N)=O)ncn2c1=O [TEMOZOLOMIDE]
Procedure, shortened: as §1

MLN-4924 = compound: NS(=O)(=O)OC[C@@H]1C[C@@H](n2ccc3c(N[C@H]4CCc5ccccc54)ncnc32)C[C@@H]1O [MLN-4924]
Procedure, shortened: as §1

XAV-939 = compound: Oc1nc(-c2ccc(C(F)(F)F)cc2)nc2c1CSCC2 [XAV-939]
Procedure, shortened: as §1

OLAPARIB = compound: O=C(c1cc(Cc2n[nH]c(=O)c3ccccc23)ccc1F)N1CCN(C(=O)C2CC2)CC1 [OLAPARIB]
Procedure, shortened: as §1

Test System	area under dose-response curve [1]	area under dose-response curve (SOTRASTAURIN/AEB071)	area under dose-response curve (SORAFENIB)	area under dose-response curve [2]	area under dose-response curve (FORETINIB)	area under dose-response curve [3]	area under dose-response curve (CRIZOTINIB)	area under dose-response curve [4]	area under dose-response curve (ABIRATERONE)	area under dose-response curve (DASATINIB)	area under dose-response curve (TEMOZOLOMIDE)	area under dose-response curve (MLN-4924)	area under dose-response curve (XAV-939)	area under dose-response curve (OLAPARIB)
93VU HEADNECK	3.21	3.06	3.6	3.13	3.15	1.8	3.62	3.15	3.9	1.68	3.5	2.42	3.51	–
143B BONE	3.44	–	3.46	–	–	3.27	–	3.2	3.51	–	–	–	–	3.36
ASKA SYNOVIAL	3.49	3.57	3.67	2.86	2.97	–	2.02	1.91	3.92	3.09	3.76	2.57	3.73	–
BT20 BREAST	3.56	3.14	–	3.01	2.97	3.27	–	2.71	3.73	2.46	3.53	–	3.66	2.92
BT549 BREAST	3.29	3.27	3.65	3	3.09	3.07	3.2	3.16	–	1.74	3.71	2.41	–	2.76
C33A CERVIX	3.14	3.68	3.69	3.29	3.09	2.14	3.26	3.07	–	1.29	3.18	2.13	3.08	–
CAL72 BONE	3.63	3.55	3.59	3.26	3.09	3.26	–	3.32	3.67	1.77	3.47	2.83	3.18	3.24
CHLA90 AUTONOMIC GANGLIA	3.14	3.28	3.78	3.28	3	2.74	3.12	2.61	3.47	2.41	3.2	–	3.24	–
CME SYNOVIAL	4.04	4.01	4.2	2.5	–	4.38	–	3.05	4.4	2.06	4.38	2.38	4.09	2.56
DU4475 BREAST	2.83	–	–	2.68	2.98	–	2.9	2.23	3.18	2.37	3.12	1.46	–	–
HCC202 BREAST	4.17	–	–	–	–	1.81	–	4.02	3.88	–	–	–	–	2.74
HCC1395 BREAST	3.71	3.61	3.88	2.92	–	3.19	4.21	3.01	3.7	2.59	3.46	3.56	2.87	3.21
HCC1806 BREAST	3.46	3.26	3.16	2.77	–	2.42	3.08	2.87	3.71	1.53	3.62	1.35	3.59	2.84
HCC1954 BREAST	2.83	2.92	3.17	2.54	–	1.98	–	1.37	–	0.867	3.75	2.34	3.2	3.08
HCT15 LARGE INTESTINE	3.26	3.44	3.39	3.36	2.87	–	3.26	3.17	3.64	2.15	3.41	2.78	3.27	–
HU09 BONE	3.49	–	2.68	3.06	2.28	3.08	3.03	2.79	3.7	1.76	3.28	2.59	–	–
HUO3N1 BONE	–	3.24	3.13	3.19	2.9	3.17	–	3.14	3.47	1.45	3.36	3.13	–	3.21
JURKAT HAEMATOPOIETIC AND LYMPHOID TISSUE	3.54	3.54	3.55	3.28	3.02	3.18	2.68	2.75	3.49	2.79	–	1.92	3.29	–
MDAMB134 BREAST	3.44	2.77	3.71	2.86	–	–	–	2.51	3.48	2.13	3.51	2.2	3.4	3.02
MDAMB453 BREAST	3.37	3.19	3.59	3.18	–	3.06	–	3.17	3.51	3.37	3.62	2.43	3.47	3.22
MDAMB468 BREAST	3.4	3.12	3.82	2.75	–	2.43	3.08	3.05	3.46	2.57	3.67	2.17	–	2.89
MG63 BONE	3.25	3.44	3.52	3.36	2.87	3.25	–	2.86	–	1.88	3.4	2.01	3.05	3.26
